According to patent US8569281B2, “Compounds and their administration for treating a neurodegenerative disease as well as a method for identifying a compound capable of inhibiting a kinase, such as LRRK” (Medical Research Council Technology, priority 2010, dated 2013):

Target: LRRK2 (Homo sapiens (Human), UniProt Q5S007)
Assay: In Vitro LRRK2 Assay (LabChip 3000, fluorescently-labeled peptide substrate)
Format: biochemical
Conditions: ATP 130 μM, substrate 1 μM, 2 hours, ambient temperature; LRRK2 variant not given; read-out: Ki (μM), affinity values for LRRK2
Description: This assay was used to determine a compound's potency in inhibiting activity of LRRK2 by determining, Kiapp, IC50, or percent inhibition values. In a polypropylene plate, LRRK2, fluorescently-labeled peptide substrate, ATP and test compound were incubated together. Using a LabChip 3000 (Caliper Life Sciences), after the reaction the substrate was separated by capillary electrophoresis into two populations: phosphorylated and unphosphorylated. The relative amounts of each were quantitated by fluorescence intensity. LRRK2 Ki was determined according to the equation: Y=V0*(1−((x+Ki*(1+S/Km)+Et)/(2*Et)−(((x+Ki*(1+S/Km)+Et)^2−(4*Et*x))^0.5)/(2*Et))).
Ki values in Table 4 and elsewhere herein are shown in μM.
Assay conditions and materials used were as follows:
Compound Plate Preparation:
For serial dilutions, 34.6 μl DMSO was added to columns 3-24.
Total and Blank Preparation:
In Complete Reaction Buffer, substrate was diluted to 4 μM. Equal volumes of Complete Reaction Buffer and 4 μM substrate were combined to obtain the blank. Equal volumes of Complete Reaction Buffer and 4 μM substrate were combined and to the combined solution was added 2× final LRRK2 concentration.
To a 50 μl polypropylene plate, 5 μl/well buffer/substrate was added by hand to Blank wells. A Biomek FX was used to start the kinase reaction (“PLK SAR 23 ATP”). The following were added to the appropriate wells: • 2 μl compound+23 μl ATP; • 5 μl/well compound/ATP in Assay Plate; • 5 μl/well kinase/substrate in Assay Plate;
The plate was incubated for 2 hours in the dark. Biomek FX was used to stop the kinase reaction (“PLK Stop”), and 10 μl/well Stop solution was added to the Assay Plate. Results were read on the LabChip 3000.
The LabChip 3000 was run using the job “LRRK2 IC50” with the following job settings: • Pressure: −1.4 psi • Downstream voltage: −500 V • Upstream voltage: −2350 V • Post sample buffer sip time: 75 seconds • Post dye buffer sip time: 75 seconds • Final delay time: 200 seconds Parkinson's Disease Animal Model

Chain of LRRK2 (Q5S007 whole entry G2019S): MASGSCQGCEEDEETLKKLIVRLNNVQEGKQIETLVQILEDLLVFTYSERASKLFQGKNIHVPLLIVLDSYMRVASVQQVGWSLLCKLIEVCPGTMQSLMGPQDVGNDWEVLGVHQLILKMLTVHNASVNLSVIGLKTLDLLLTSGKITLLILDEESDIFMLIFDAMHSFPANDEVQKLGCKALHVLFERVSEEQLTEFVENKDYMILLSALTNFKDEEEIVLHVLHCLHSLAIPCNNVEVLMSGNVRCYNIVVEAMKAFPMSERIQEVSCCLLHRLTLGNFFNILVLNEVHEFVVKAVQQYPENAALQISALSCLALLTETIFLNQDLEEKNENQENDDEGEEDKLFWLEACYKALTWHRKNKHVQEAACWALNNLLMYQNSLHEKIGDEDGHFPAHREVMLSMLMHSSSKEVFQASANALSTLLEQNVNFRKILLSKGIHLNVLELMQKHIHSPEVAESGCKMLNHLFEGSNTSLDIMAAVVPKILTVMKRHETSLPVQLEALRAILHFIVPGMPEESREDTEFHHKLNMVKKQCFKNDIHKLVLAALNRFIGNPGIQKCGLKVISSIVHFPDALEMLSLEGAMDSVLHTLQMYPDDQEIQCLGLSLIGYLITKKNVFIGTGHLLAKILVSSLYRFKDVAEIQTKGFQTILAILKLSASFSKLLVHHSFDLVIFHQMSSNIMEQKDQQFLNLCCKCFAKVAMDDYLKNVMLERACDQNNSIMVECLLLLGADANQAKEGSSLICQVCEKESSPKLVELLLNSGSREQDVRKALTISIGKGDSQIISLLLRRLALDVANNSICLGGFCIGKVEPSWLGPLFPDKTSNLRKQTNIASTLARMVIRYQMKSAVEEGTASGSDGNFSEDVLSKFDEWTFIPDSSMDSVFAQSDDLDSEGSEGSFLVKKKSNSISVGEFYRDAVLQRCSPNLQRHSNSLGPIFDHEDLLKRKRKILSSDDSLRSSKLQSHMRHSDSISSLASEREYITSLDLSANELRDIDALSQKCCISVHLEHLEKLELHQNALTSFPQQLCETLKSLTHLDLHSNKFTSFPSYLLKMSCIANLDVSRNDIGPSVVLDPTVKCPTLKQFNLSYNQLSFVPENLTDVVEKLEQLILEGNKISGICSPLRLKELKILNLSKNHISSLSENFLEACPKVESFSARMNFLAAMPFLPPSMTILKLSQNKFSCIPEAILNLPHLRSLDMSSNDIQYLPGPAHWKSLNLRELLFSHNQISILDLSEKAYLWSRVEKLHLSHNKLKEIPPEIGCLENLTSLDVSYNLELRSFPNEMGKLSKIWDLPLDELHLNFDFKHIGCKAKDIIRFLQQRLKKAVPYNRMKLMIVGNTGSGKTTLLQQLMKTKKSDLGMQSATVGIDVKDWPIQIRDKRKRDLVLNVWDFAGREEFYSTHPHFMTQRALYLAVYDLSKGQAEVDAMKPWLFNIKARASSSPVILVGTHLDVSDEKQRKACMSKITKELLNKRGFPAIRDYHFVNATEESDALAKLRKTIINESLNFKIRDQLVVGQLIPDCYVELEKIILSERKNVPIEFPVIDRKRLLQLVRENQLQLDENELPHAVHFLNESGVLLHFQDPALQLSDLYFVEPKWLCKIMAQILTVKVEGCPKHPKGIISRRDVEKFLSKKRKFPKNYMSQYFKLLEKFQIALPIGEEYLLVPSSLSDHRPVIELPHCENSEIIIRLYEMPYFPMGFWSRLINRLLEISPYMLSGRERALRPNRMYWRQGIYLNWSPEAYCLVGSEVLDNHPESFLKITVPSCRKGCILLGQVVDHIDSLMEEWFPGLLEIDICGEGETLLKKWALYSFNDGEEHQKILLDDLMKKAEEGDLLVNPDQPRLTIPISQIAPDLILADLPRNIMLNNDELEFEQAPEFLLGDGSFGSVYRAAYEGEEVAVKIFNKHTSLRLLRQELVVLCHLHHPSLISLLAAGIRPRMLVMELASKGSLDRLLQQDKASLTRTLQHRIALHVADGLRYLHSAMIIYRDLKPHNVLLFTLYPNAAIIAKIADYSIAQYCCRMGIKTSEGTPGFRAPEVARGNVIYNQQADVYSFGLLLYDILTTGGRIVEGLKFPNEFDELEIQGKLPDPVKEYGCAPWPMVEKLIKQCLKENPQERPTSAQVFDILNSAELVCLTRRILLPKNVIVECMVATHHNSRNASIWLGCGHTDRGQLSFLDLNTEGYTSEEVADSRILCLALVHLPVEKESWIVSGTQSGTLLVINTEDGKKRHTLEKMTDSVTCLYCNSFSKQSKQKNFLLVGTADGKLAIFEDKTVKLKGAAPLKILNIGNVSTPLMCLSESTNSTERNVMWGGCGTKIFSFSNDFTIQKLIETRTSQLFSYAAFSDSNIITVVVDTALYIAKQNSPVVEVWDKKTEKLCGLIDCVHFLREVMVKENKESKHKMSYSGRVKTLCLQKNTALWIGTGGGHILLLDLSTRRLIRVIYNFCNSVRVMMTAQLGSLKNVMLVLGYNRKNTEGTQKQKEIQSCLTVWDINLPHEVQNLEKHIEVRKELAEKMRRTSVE

| Compound | Ki [µM] |
| --- | --- |
| CN(C)C(=O)c1cccc(-c2cc(-c3n[nH]c4ccnc(OC5CCOCC5)c34)ccn2)c1 [Example 203, N,N-dimethyl-3-(4-(4-(tetrahydro-2H-pyran-4-yloxy)-1H-pyrazolo[4,3-c]pyridin-3-yl)pyridin-2-yl)benzamide] | 0.018 |
| c1cc2[nH]nc(-c3cnn(C4CCOCC4)c3)c2c(OC2CCOCC2)n1 [Example 186, 3-(1-(tetrahydro-2H-pyran-4-yl)-1H-pyrazol-4-yl)-4-(tetrahydro-2H-pyran-4-yloxy)-1H-pyrazolo[4,3-c]pyridine] | 0.013 |
| c1cc2[nH]nc(-c3ccc4ncn(C5CCOC5)c4c3)c2c(OC2CCOCC2)n1 (stereo not shown) [Example 128, 4-(Tetrahydro-2H-pyran-4-yloxy)-3-(1-(tetrahydrofuran-3-yl)-1H-benzo[d]imidazol-6-yl)-1H-pyrazolo[4,3-c]pyridine] | 0.034 |
| Fc1c(-c2n[nH]c3ccnc(OC4CCOCC4)c23)ccnc1N1CCOCC1 [Example 103, 4-(3-Fluoro-4-(4-(tetrahydro-2H-pyran-4-yloxy)-1H-pyrazolo[4,3-c]pyridin-3-yl)pyridin-2-yl)morpholine] | 0.046 |
| CC(C)n1cc(-c2n[nH]c3ccnc(OC4CCOCC4)c23)cc1C(=O)N(C)C [Example 66, 1-isopropyl-N,N-dimethyl-4-(4-(tetrahydro-2H-pyran-4-yloxy)-1H-pyrazolo[4,3-c]pyridin-3-yl)-1H-pyrrole-2-carboxamide] | 0.045 |
| c1cc(-c2n[nH]c3ccnc(OC4CCOCC4)c23)cc(NC2COC2)n1 [Example 113, N-(Oxetan-3-yl)-4-(4-(tetrahydro-2H-pyran-4-yloxy)-1H-pyrazolo[4,3-c]pyridin-3-yl)pyridin-2-amine] | 0.136 |
| CC(C)Oc1nccc2[nH]nc(-c3cc(C(=O)N4CCCCC4)n(C(C)C)c3)c12 [Example 56, (4-(4-Isopropoxy-1H-pyrazolo[4,3-c]pyridin-3-yl)-1-isopropyl-1H-pyrrol-2-yl)(piperidin-1-yl)methanone] | 0.019 |
| c1cc(-c2n[nH]c3ccnc(OC4CCOCC4)c23)c2cc[nH]c2c1 [Example 158, 3-(1H-Indol-4-yl)-4-(tetrahydro-2H-pyran-4-yloxy)-1H-pyrazolo[4,3-c]pyridine] | 0.448 |

Next, values leading:

| Ki [µM] | Compound |
| --- | --- |
| 0.0784 | CC(C)NC(=O)c1cccc(-c2[nH]nc3ccnc(OC4CCOCC4)c23)c1 [Example 154, N-Isopropyl-3-(4-(tetrahydro-2H-pyran-4-yloxy)-1H-pyrazolo[4,3-c]pyridin-3-yl)benzamide] |
| 0.005 | c1cc2[nH]nc(-c3cnn([C@@H]4CCOC4)c3)c2c(OC2CCOCC2)n1 [Example 146, (R)-4-(Tetrahydro-2H-pyran-4-yloxy)-3-(1-(tetrahydrofuran-3-yl)-1H-pyrazol-4-yl)-1H-pyrazolo[4,3-c]pyridine] |
| 0.045 | COc1nccc2n[nH]c(-c3cccc(S(C)(=O)=O)c3)c12 [Example 167, 4-Methoxy-3-(3-(methylsulfonyl)phenyl)-1H-pyrazolo[4,3-c]pyridine] |
| 0.323 | CC(C)n1cc(-c2n[nH]c3ccnc(OCCN4CCOC4=O)c23)cn1 [Example 182, 3-(2-(3-(1-isopropyl-1H-pyrazol-4-yl)-1H-pyrazolo[4,3-c]pyridin-4-yloxy)ethyl)oxazolidin-2-one] |
| 0.005 | Clc1ccccc1C#Cc1[nH]nc2ccnc(OC3CCOCC3)c12 [Example 132, 3-((2-Chlorophenyl)ethynyl)-4-(tetrahydro-2H-pyran-4-yloxy)-1H-pyrazolo[4,3-c]pyridine] |
| 0.025 | N#Cc1ccc(-c2cc(-c3n[nH]c4ccnc(OC5CCOCC5)c34)ccn2)cc1 [Example 202, 4-(4-(4-(tetrahydro-2H-pyran-4-yloxy)-1H-pyrazolo[4,3-c]pyridin-3-yl)pyridin-2-yl) benzonitrile] |
| 0.029 | COc1nccc2[nH]nc(-c3ccnc(N4CCOCC4)c3)c12 [Example 107, 4-(4-(4-Methoxy-1H-pyrazolo[4,3-c]pyridin-3-yl)pyridin-2-yl)morpholine] |

Same assay, conditions: read-out: Ki (μM), affinity values for LRRK2

| Compound | Ki [µM] |
| --- | --- |
| 3-(1-(Oxetan-3-yl)-1H-benzo[d]imidazol-6-yl)-4-(tetrahydro-2H-pyran-4-yloxy)-1H-pyrazolo[4,3-c]pyridine [Example 124] | 0.019 |
